Experimental data published in patent US5210193A, “Piperazine derivatives” (American Cyanamid Company, priority 1990, dated 1993).
Converted amounts (≈) assume the structure as drawn. Read-outs that look alike come from different tables or passages of the source.

Tests used:
Experiment in all cases: in vitro antibacterial MIC, agar plate dilution
Type in all cases: cell-based
[1] = test system: Staphylococcus aureus VGH 84-45; details: Staphylococcus aureus, VGH8445, 18 h, 35° C., read-out: MIC
Procedure, shortened: (§1)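 MIC, mcg/ml: lowest concentration with no visible growth after 18 h incubation at 35° C. Mueller-Hinton agar dilution plates; ~10^4 CFU inoculum via Steers replicating device.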

[2] = test system: Streptococcus faecalis VGH 84-65; details: Enterococcus faecalis, VGH8465, 18 h, 35° C., read-out: MIC
Procedure, shortened: as §1

[3] = test system: Proteus rettgeri IO 83-21; details: Providencia rettgeri, IO8321, 18 h, 35° C., read-out: MIC
Procedure, shortened: as §1

[4] = test system: Enterobacter cloacae K 84-10; details: Enterobacter cloacae, K8410, 18 h, 35° C., read-out: MIC
Procedure, shortened: as §1

[5] = test system: Staphylococcus aureus Smith; details: Staphylococcus aureus, 18 h, 35° C., read-out: MIC
Procedure, shortened: as §1

[6] = test system: Pseudomonas aeruginosa K 84-16; details: Pseudomonas aeruginosa, K8416, 18 h, 35° C., read-out: MIC
Procedure, shortened: as §1

[7] = test system: Streptococcus faecalis UCI 85-19; details: Enterococcus faecalis, UCI8519, 18 h, 35° C., read-out: MIC
Procedure, shortened: as §1

[8] = test system: Klebsiella pneumoniae MOR 84-24; details: Klebsiella pneumoniae, MOR8424, 18 h, 35° C., read-out: MIC
Procedure, shortened: as §1

Citrobacter div. K 82-24 = details: Citrobacter, DIV.K8224, 18 h, 35° C., read-out: MIC
Procedure, shortened: as §1

[9] = test system: Morganella morganii CMC 84-38; details: Morganella morganii, CMC8438, 18 h, 35° C., read-out: MIC
Procedure, shortened: as §1

[10] = test system: Pseudomonas aeruginosa CMC 83-20; details: Pseudomonas aeruginosa, CMC8320, 18 h, 35° C., read-out: MIC
Procedure, shortened: as §1

[11] = test system: Klebsiella pneumoniae CMC 84-31; details: Klebsiella pneumoniae, CMC8431, 18 h, 35° C., read-out: MIC
Procedure, shortened: as §1

[12] = test system: Serratia marcescens CMC 83-74; details: Serratia marcescens, CMC8374, 18 h, 35° C., read-out: MIC
Procedure, shortened: as §1

[13] = test system: Escherichia coli CMC 84-11; details: Escherichia coli, CMC8411, 18 h, 35° C., read-out: MIC
Procedure, shortened: as §1

[14] = test system: Staphylococcus aureus VGH 84-47; details: Staphylococcus aureus, VGH8447, 18 h, 35° C., read-out: MIC
Procedure, shortened: as §1

[15] = test system: Klebsiella pneumoniae IO 83-5; details: Klebsiella pneumoniae, IO835, 18 h, 35° C., read-out: MIC
Procedure, shortened: as §1

[16] = test system: Serratia marcescens VGH 84-30; details: Serratia marcescens, VGH8430, 18 h, 35° C., read-out: MIC
Procedure, shortened: as §1

[17] = test system: Serratia marcescens K 84-18; details: Serratia marcescens, K8418, 18 h, 35° C., read-out: MIC
Procedure, shortened: as §1

[18] = test system: Staphylococcus aureus K 82-26; details: Staphylococcus aureus, K8226, 18 h, 35° C., read-out: MIC
Procedure, shortened: as §1

[19] = test system: Enterobacter cloacae MOR 84-30; details: Enterobacter cloacae, MOR8430, 18 h, 35° C., read-out: MIC
Procedure, shortened: as §1

[20] = test system: Escherichia coli ATCC 25922; details: 35° C.
Procedure, shortened: as §1

[21] = test system: Escherichia coli VGH 84-19; details: Escherichia coli, VGH8419, 18 h, 35° C., read-out: MIC
Procedure, shortened: as §1

[22] = test system: Pseudomonas aeruginosa LL-1244; details: Pseudomonas aeruginosa, LL1244, 18 h, 35° C., read-out: MIC
Procedure, shortened: as §1

[23] = test system: Pseudomonas aeruginosa VGH 84-3; details: Pseudomonas aeruginosa, VGH843, 18 h, 35° C., read-out: MIC
Procedure, shortened: as §1

[24] = test system: Streptococcus faecalis UCI 85-30; details: Enterococcus faecalis, UCI8530, 18 h, 35° C., read-out: MIC
Procedure, shortened: as §1

[25] = test system: Morganella morganii CMC 84-37; details: Morganella morganii, CMC8437, 18 h, 35° C., read-out: MIC
Procedure, shortened: as §1

[26] = test system: Pseudomonas aeruginosa VGH 84-4; details: Pseudomonas aeruginosa, VGH844, 18 h, 35° C., read-out: MIC
Procedure, shortened: as §1

[27] = test system: Providencia stuarti CMC 83-3; details: Providencia, CMC833, 18 h, 35° C., read-out: MIC
Procedure, shortened: as §1

[28] = test system: Escherichia coli CMC 84-50; details: Escherichia coli, CMC8450, 18 h, 35° C., read-out: MIC
Procedure, shortened: as §1

[29] = test system: Streptococcus faecalis CMC 83-120; details: Enterococcus faecalis, CMC83120, 18 h, 35° C., read-out: MIC
Procedure, shortened: as §1

[30] = test system: Escherichia coli MOR 84-20; details: Escherichia coli, MOR8420, 18 h, 35° C., read-out: MIC
Procedure, shortened: as §1

[31] = test system: Staphylococcus aureus CMC 83-131; details: Staphylococcus aureus, CMC83131, 18 h, 35° C., read-out: MIC
Procedure, shortened: as §1

[32] = test system: Staphylococcus aureus ATTC 29213; details: 35° C.
Procedure, shortened: as §1

[33] = Escherichia coli, ATCC25922, 18 h, read-out: MIC
[34] = Staphylococcus aureus, ATTC29213, 18 h, read-out: MIC

CCn1cc(C(=O)O)c(=O)c2cc(F)c(N3CCNC(c4ccoc4)C3)cc21 (stereo not shown) [Example 94, 1-Ethyl-6-fluoro-1,4-dihydro-4-oxo-7-[3-(3-furanyl)-1-piperazinyl]-3-quinolinecarboxylic acid]
MIC [1]: 0.12 µg/mL (≈ 0.311 µM) | MIC [2]: 2 µg/mL (≈ 5.19 µM) | MIC [3]: 1 µg/mL (≈ 2.59 µM) | MIC [4]: 0.25 µg/mL (≈ 0.649 µM) | MIC [5]: 0.12 µg/mL (≈ 0.311 µM) | MIC [6]: 16 µg/mL (≈ 41.5 µM) | MIC [7]: 4 µg/mL (≈ 10.4 µM) | MIC [8]: 1 µg/mL (≈ 2.59 µM) | MIC (Citrobacter div. K 82-24): 0.25 µg/mL (≈ 0.649 µM) | MIC [9]: 0.25 µg/mL (≈ 0.649 µM) | MIC [10]: 8 µg/mL (≈ 20.8 µM) | MIC [11]: 0.5 µg/mL (≈ 1.3 µM) | MIC [12]: 16 µg/mL (≈ 41.5 µM) | MIC [13]: 0.12 µg/mL (≈ 0.311 µM) | MIC [14]: 0.25 µg/mL (≈ 0.649 µM) | MIC [15]: 1 µg/mL (≈ 2.59 µM) | MIC [16]: 8 µg/mL (≈ 20.8 µM) | MIC [17]: 0.5 µg/mL (≈ 1.3 µM) | MIC [18]: 0.25 µg/mL (≈ 0.649 µM) | MIC [19]: 4 µg/mL (≈ 10.4 µM) | MIC ([20]; 18 hours): 0.5 µg/mL (≈ 1.3 µM) | MIC [20, 33]: 0.25 µg/mL (≈ 0.649 µM) | MIC [21]: 0.25 µg/mL (≈ 0.649 µM) | MIC [22]: 8 µg/mL (≈ 20.8 µM) | MIC [23]: > 16 µg/mL | MIC [24]: 4 µg/mL (≈ 10.4 µM) | MIC [25]: 0.12 µg/mL (≈ 0.311 µM) | MIC [26]: 4 µg/mL (≈ 10.4 µM) | MIC [27]: 16 µg/mL (≈ 41.5 µM) | MIC [28]: 0.25 µg/mL (≈ 0.649 µM) | MIC [29]: 4 µg/mL (≈ 10.4 µM) | MIC [30]: 0.25 µg/mL (≈ 0.649 µM)

CCn1cc(C(=O)O)c(=O)c2cc(F)c(N3CCN(C)C(c4ccn(C)n4)C3)cc21 (stereo not shown) [Example 109, 1-Ethyl-6-fluoro-1,4-dihydro-7-[4-methyl-3-(1-methyl-1H-pyrazol-3-yl) -1-piperazinyl]-4-oxo-3-quinolinecarboxylic acid]
MIC [1]: 0.5 µg/mL (≈ 1.21 µM) | MIC [2]: 16 µg/mL (≈ 38.7 µM) | MIC [31]: 2 µg/mL (≈ 4.84 µM) | MIC [3]: > 16 µg/mL | MIC [4]: 16 µg/mL (≈ 38.7 µM) | MIC [5]: 0.25 µg/mL (≈ 0.605 µM) | MIC [6]: > 16 µg/mL | MIC [7]: 16 µg/mL (≈ 38.7 µM) | MIC ([32]; 18 hours): 1 µg/mL (≈ 2.42 µM) | MIC [32, 34]: 0.5 µg/mL (≈ 1.21 µM) | MIC [8]: > 16 µg/mL | MIC (Citrobacter div. K 82-24): > 16 µg/mL | MIC [9]: > 16 µg/mL | MIC [10]: > 16 µg/mL | MIC [11]: > 16 µg/mL | MIC [12]: > 16 µg/mL | MIC [13]: 16 µg/mL (≈ 38.7 µM) | MIC [14]: 2 µg/mL (≈ 4.84 µM) | MIC [15]: > 16 µg/mL | MIC [16]: > 128 µg/mL | MIC [17]: 32 µg/mL (≈ 77.4 µM) | MIC [18]: > 16 µg/mL | MIC [19]: > 16 µg/mL | MIC [20, 33]: 8 µg/mL (≈ 19.3 µM) | MIC [21]: > 16 µg/mL | MIC [22]: > 128 µg/mL | MIC [23]: > 16 µg/mL | MIC [24]: > 16 µg/mL | MIC [26]: > 128 µg/mL | MIC [27]: > 16 µg/mL | MIC [28]: > 16 µg/mL | MIC [29]: > 16 µg/mL | MIC [30]: > 16 µg/mL

O=C(O)c1cn(C2CC2)c2cc(N3CCNC(CF)C3)c(F)cc2c1=O (stereo not shown) [Example 131, 1-Cyclopropyl-6-fluoro-7-[3-(fluoromethyl)-1-piperazinyl]-1,4-dihydro-4-oxo-3-quinolinecarboxylic acid]
MIC [1]: 0.25 µg/mL (≈ 0.688 µM) | MIC [2]: 1 µg/mL (≈ 2.75 µM) | MIC [31]: 1 µg/mL (≈ 2.75 µM) | MIC [3]: 0.12 µg/mL (≈ 0.33 µM) | MIC [4]: 0.03 µg/mL (≈ 0.0826 µM) | MIC [5]: 0.06 µg/mL (≈ 0.165 µM) | MIC [6]: 1 µg/mL (≈ 2.75 µM) | MIC [7]: 2 µg/mL (≈ 5.5 µM) | MIC [32, 34]: 0.5 µg/mL (≈ 1.38 µM) | MIC [8]: 0.12 µg/mL (≈ 0.33 µM) | MIC (Citrobacter div. K 82-24): 0.06 µg/mL (≈ 0.165 µM) | MIC [9]: 0.06 µg/mL (≈ 0.165 µM) | MIC [10]: 1 µg/mL (≈ 2.75 µM) | MIC [11]: 0.06 µg/mL (≈ 0.165 µM) | MIC [12]: 4 µg/mL (≈ 11 µM) | MIC [13]: 0.015 µg/mL (≈ 0.0413 µM) | MIC [14]: 0.25 µg/mL (≈ 0.688 µM) | MIC [15]: 0.12 µg/mL (≈ 0.33 µM) | MIC [16]: 2 µg/mL (≈ 5.5 µM) | MIC [17]: 0.12 µg/mL (≈ 0.33 µM) | MIC [18]: 0.5 µg/mL (≈ 1.38 µM) | MIC [20, 33]: 0.015 µg/mL (≈ 0.0413 µM) | MIC [21]: 0.03 µg/mL (≈ 0.0826 µM) | MIC [22]: 2 µg/mL (≈ 5.5 µM) | MIC [23]: 8 µg/mL (≈ 22 µM) | MIC [24]: 2 µg/mL (≈ 5.5 µM) | MIC [25]: 0.5 µg/mL (≈ 1.38 µM) | MIC [26]: 1 µg/mL (≈ 2.75 µM) | MIC [27]: 16 µg/mL (≈ 44 µM) | MIC [28]: 0.06 µg/mL (≈ 0.165 µM) | MIC [29]: 2 µg/mL (≈ 5.5 µM) | MIC [30]: 0.03 µg/mL (≈ 0.0826 µM)
